Laboratory results taken from patent US10357526B2, “Compositions for the treatment of infections caused by mite Demodex spp” (PROCAPS S.A., priority 2014, dated 2019).

Tested on: Demodex Spp
Assay: Evaluation of the solvent action on the survival of mites
Details: for Average life time of Acaro (mites) in the solvents: neat solvent
Description: Before evaluating the miticide effect of each of the oils, miscibility and safety thereof on mites was studied.

| Compound | Average life time of Acaro (mites) in the solvents [h] | Acaricidal activity of the diluent (within 8 hours) |
| --- | --- | --- |
| CCO [Absolute Ethanol] | 0.03434 |  |
| CCCCCCCC/C=C\CCCCCCCC(=O)OCCCCCCCCCC [Cetiol V, decyl oleate] | 8 | did not have acaricidal activity |
| CCCCCCCCCCCCCC(=O)OC(C)C [Isopropyl Myristate] | 3.37 |  |
| PEG-7 Glycerol Cocoate [Cetiol HE] | 0.08938 |  |
